Biological target: T1, human 5-HT2A receptor (Homo sapiens, UniProt P28223)
T1 construct: expressed in transfected cells; host or cells: COS7 cells, transient transfection, pCMV vector; crude membranes
Experiment: [125I]DOI radioligand binding assay
Conditions: 0.5 nM [125I]DOI, membranes of COS7 cells transfected with human 5-HT2A receptor
Method: Crude membrane pellets were stored at −80° C. until used for radioligand binding assays.

T1 sequence (P28223 whole entry): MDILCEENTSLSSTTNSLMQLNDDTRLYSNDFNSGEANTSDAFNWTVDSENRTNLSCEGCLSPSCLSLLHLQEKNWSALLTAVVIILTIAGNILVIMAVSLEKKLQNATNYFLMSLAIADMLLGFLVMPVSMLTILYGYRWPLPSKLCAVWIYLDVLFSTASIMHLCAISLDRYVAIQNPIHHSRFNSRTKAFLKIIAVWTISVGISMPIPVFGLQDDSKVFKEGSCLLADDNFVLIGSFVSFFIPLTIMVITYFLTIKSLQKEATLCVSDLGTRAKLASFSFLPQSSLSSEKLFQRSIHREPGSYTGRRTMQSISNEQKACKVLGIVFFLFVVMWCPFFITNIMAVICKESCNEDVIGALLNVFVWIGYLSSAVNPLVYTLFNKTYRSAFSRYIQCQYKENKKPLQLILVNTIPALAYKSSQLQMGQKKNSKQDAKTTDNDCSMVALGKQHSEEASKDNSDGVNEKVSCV

IC50 [nM] | SMILES
13.7 | Cn1nccc1-c1cc(NC(=O)Cc2ccc(F)cc2)ccc1OCCN1CCOCC1 [Compound 160, 2-(4-Fluoro-phenyl)-N-[3-(2-methyl-2H-pyrazol-3-yl)-4-(2-morpholin-4-yl-ethoxy)-phenyl]-acetamide]
1.1 | CC(C)COC(=O)Nc1ccc(OCCN2CCCC2)c(-c2c(Br)cnn2C)c1 [Compound 23, [3-(4-Bromo-2-methyl-2H-pyrazol-3-yl)-4-(2-pyrrolidin-1-yl-ethoxy)-phenyl]-carbamic acid isobutyl ester]
10.2 | Cn1nccc1-c1cc(NC(=O)NCc2ccc(Cl)cc2)ccc1OCCN1CCCCC1 [Compound 45, 1-(4-Chloro-benzyl)-3-[3-(2-methyl-2H-pyrazol-3-yl)-4-(2-piperidin-1-yl-ethoxy)-phenyl]-urea]
